Data as given in DBAASP.
≈ marks a conversion by molar mass, not a printed value. Values belong to the molecule of their own block, whether it stands above or below them.

Assays:
Test in all cases: ≥ marks a high value that may be exact or a test limit, other limits are often not marked, values filed in µg/mL are converted to µM
[1] = test system: Staphylococcus epidermidis ATCC 12228
[2] = test system: Listeria monocytogenes KCTC 3710
[3] = test system: Pseudomonas aeruginosa ATCC 15692
[4] = test system: Proteus vulgaris KCTC 2433
[5] = test system: Escherichia coli ATCC 25922
[6] = test system: Trichosporon beigelii KCTC 7707
[7] = test system: Aspergillus awamori KCTC 6915
[8] = test system: Candida albicans KCTC 7270
[9] = test system: Aspergillus parasiticus KCTC 6598
[10] = test system: Aspergillus flavus KCTC 6905
[11] = test system: Staphylococcus aureus ATCC 25923
[12] = test system: Salmonella typhimurium KCTC 1926
[13] = test system: Aspergillus fumigatus KCTC 6145
[14] = test system: Bacillus subtilis KCTC 1998
[15] = test system: Micrococcus luteus MTCC 106
[16] = test system: Vibrio cholerae MTCC 3904
[17] = test system: Batrachochytrium dendrobatidis JEL-197
[18] = test system: Candida albicans ATCC 2002
[19] = test system: Pseudomonas aeruginosa CMCCB 10104
[20] = test system: Staphylococcus aureus ATCC 2592
Staphylococcus xylosus = test system: Staphylococcus xylosus
[21] = test system: Escherichia coli DH5alpha
[22] = test system: Escherichia coli ATCC 51659
[23] = test system: Pseudomonas aeruginosa PAO1
[24] = test system: Staphylococcus aureus ATCC 33592
[25] = test system: Acinetobacter baumannii ATCC BAA-1794
[26] = test system: Escherichia coli ATCC 2592
[27] = test system: Pseudomonas aeruginosa ATCC 9027
[28] = test system: Staphylococcus aureus ATCC 6538
[29] = test system: Micrococcus luteus ATCC 9341
[30] = test system: Staphylococcus aureus 1550
Staphylococcus aureus = test system: Staphylococcus aureus
Escherichia coli DC2 = test system: Escherichia coli DC2
Escherichia coli K-12 = test system: Escherichia coli K-12
[31] = test system: Staphylococcus aureus UAMS-1

- MIC [1]: 2.83 µM (≈ 5.62 µg/mL)
- MIC [2]: 2 µM (≈ 3.97 µg/mL)
- MIC [3]: 1 µM (≈ 1.99 µg/mL)
- MIC [4]: 4 µM (≈ 7.95 µg/mL)
- MIC [5]: 4 µM (≈ 7.95 µg/mL)
- MIC [6]: 16 µM (≈ 31.8 µg/mL)
- MIC [7]: 16 µM (≈ 31.8 µg/mL)
- MIC [8]: 8 µM (≈ 15.9 µg/mL)
- MIC [9]: 8 µM (≈ 15.9 µg/mL)
- MIC [10]: 16 µM (≈ 31.8 µg/mL)
- MIC [11]: 2 µM (≈ 3.97 µg/mL)
- MIC [12]: 1 µM (≈ 1.99 µg/mL)
- MIC [13]: 8 µM (≈ 15.9 µg/mL)
- MIC [14]: 2 µM (≈ 3.97 µg/mL)
Structure (SMILES): CC[C@H](C)[C@H](NC(=O)[C@H](CCCCN)NC(=O)[C@H](CCCCN)NC(=O)[C@H](Cc1ccccc1)NC(=O)[C@H](CC(C)C)NC(=O)[C@H](CCCCN)NC(=O)[C@H](CCCCN)NC(=O)[C@H](CC(C)C)NC(=O)[C@H](CCCN=C(N)N)NC(=O)[C@H](CCCCN)NC(=O)[C@H](C)N)C(=O)N[C@@H](Cc1c[nH]c2ccccc12)C(=O)N[C@@H](CC(N)=O)C(=O)N[C@@H](Cc1c[nH]c2ccccc12)C(=O)N[C@@H](CCCCN)C(N)=O [AKRLKKLFKKIWNWK]

- MIC [15]: 6.3 µM (≈ 10.7 µg/mL)
Structure (SMILES): CC(C)C[C@H](NC(=O)[C@H](Cc1cnc[nH]1)NC(=O)[C@@H](NC(=O)[C@H](CC(C)C)NC(=O)[C@@H]1CSSC[C@H](NC(=O)[C@H](CO)NC(=O)[C@H](Cc2ccccc2)NC(=O)[C@@H]2CCCN2C(=O)[C@@H](NC(=O)[C@@H]2CCCN2C(=O)[C@H](C)N)C(C)C)C(=O)N[C@@H]([C@@H](C)O)C(=O)N[C@@H](CCCN=C(N)N)C(=O)NCC(=O)N1)[C@@H](C)O)C(=O)N[C@H](C(=O)O)C(C)C [APVPFSCTRGCLTHLV]
- MIC [16]: 25.4 µM (≈ 43.2 µg/mL)

- MIC [5]: 14 µM (≈ 36.6 µg/mL)
- MIC [17]: 20 µM (≈ 52.2 µg/mL)
Structure (SMILES): CC[C@H](C)[C@H](NC(=O)[C@H](CCCCN)NC(=O)[C@H](CCCCN)NC(=O)[C@H](CC(C)C)NC(=O)[C@@H](NC(=O)[C@H](CCC(N)=O)NC(=O)CNC(=O)[C@H](C)NC(=O)[C@@H](NC(=O)CNC(=O)[C@H](C)NC(=O)[C@@H](NC(=O)[C@@H](NC(=O)[C@@H]1CCCN1C(=O)[C@H](Cc1ccccc1)NC(=O)[C@@H](N)Cc1ccccc1)[C@@H](C)CC)C(C)C)C(C)C)C(C)C)C(=O)N[C@@H](Cc1ccc(O)cc1)C(=O)N[C@H]1CSSC[C@@H](C(=O)O)NC(=O)[C@H](CCCCN)NC(=O)[C@H](CCCCN)NC(=O)[C@H](CO)NC(=O)[C@H]([C@@H](C)CC)NC(=O)[C@H]([C@@H](C)O)NC1=O [FFPIVAGVAGQVLKKIYCTISKKC]

- MIC [18]: 2.57 µM (≈ 5 µg/mL)
- MIC [19]: 10.3 µM (≈ 20 µg/mL)
- MIC [5]: 10.3 µM (≈ 20 µg/mL)
- MIC [20]: 5.14 µM (≈ 10 µg/mL)
Structure (SMILES): CC[C@H](C)[C@H](N)C(=O)N[C@@H](CC(C)C)C(=O)NCC(=O)N1CCC[C@H]1C(=O)N[C@H](C(=O)N[C@@H](CC(C)C)C(=O)NCC(=O)N[C@@H](CC(C)C)C(=O)N[C@H](C(=O)NCC(=O)N[C@@H](CC(N)=O)C(=O)N[C@@H](C)C(=O)N[C@@H](CC(C)C)C(=O)NCC(=O)NCC(=O)N[C@@H](CC(C)C)C(=O)N[C@H](C(=O)N[C@@H](CCCCN)C(=O)N[C@@H](CCCCN)C(=O)N[C@H](C(N)=O)[C@@H](C)CC)[C@@H](C)CC)C(C)C)C(C)C [ILGPVLGLVGNALGGLIKKI]

- MIC (Staphylococcus xylosus): 0.5 µM (≈ 0.733 µg/mL)
- MIC [21]: 8 µM (≈ 11.7 µg/mL)
Structure (SMILES): CC[C@H](C)[C@H](NC(=O)[C@H](CCCCN)NC(=O)[C@H](CCCCN)NC(=O)[C@@H](N)CCCCN)C(=O)N[C@H](C(=O)N[C@H](C(=O)N[C@H](C(=O)N[C@H](C(=O)N[C@H](C(=O)N[C@@H](CCCCN)C(=O)N[C@@H](CCCCN)C(=O)N[C@@H](CCCCN)C(=O)O)[C@@H](C)CC)[C@@H](C)CC)[C@@H](C)CC)[C@@H](C)CC)[C@@H](C)CC [KKKIIIIIIKKK]

- MIC [22]: ≥ 90.3 µM
- MIC [23]: > 90.3 µM
- MIC [24]: ≥ 90.3 µM
- MIC [25]: ≥ 90.3 µM
Structure (SMILES): CC(C)C[C@H](NC(=O)[C@H](CCCCN)NC(=O)[C@H](CCC(=O)O)NC(=O)[C@H](CCCCN)NC(=O)[C@@H](NC(=O)[C@H](CCCCN)NC(=O)[C@H](CCCCN)NC(=O)[C@H](Cc1ccccc1)NC(=O)[C@H](Cc1cnc[nH]1)NC(=O)[C@H](CCC(=O)O)NC(=O)[C@H](CO)NC(=O)[C@H](Cc1ccccc1)NC(=O)[C@H](Cc1c[nH]c2ccccc12)NC(=O)[C@H](CC(N)=O)NC(=O)[C@H](CCCN=C(N)N)NC(=O)[C@@H](NC(=O)[C@@H](N)CCCCN)[C@@H](C)O)C(C)C)C(=O)N[C@@H](CCCCN)C(=O)N[C@@H](CC(=O)O)C(=O)N[C@H](C(=O)N[C@@H](Cc1ccccc1)C(=O)N[C@@H](C)C(=O)O)[C@@H](C)O [KTRNWFSEHFKKVKEKLKDTFA]

- MIC [26]: 18 µM (≈ 22 µg/mL)
- MIC [27]: 13.1 µM (≈ 16 µg/mL)
- MIC [28]: 10.2 µM (≈ 12.5 µg/mL)
- MIC [29]: 9.01 µM (≈ 11 µg/mL)
- MIC [30]: 13.1 µM (≈ 16 µg/mL)
Structure (SMILES): CC(C)C[C@H](NC(=O)[C@@H](NC(=O)[C@H](CCCCN)NC(=O)[C@H](Cc1ccccc1)NC(=O)[C@@H](NC(=O)[C@@H](NC(=O)[C@H](CCCCN)NC(=O)[C@@H](N)CC(C)C)C(C)C)C(C)C)C(C)C)C(=O)N[C@@H](Cc1ccccc1)C(=O)N[C@@H](CCCCN)C(=O)O [LKVVFKVLFK]

- MIC (Staphylococcus aureus): > 24 µM
- MIC (Escherichia coli DC2): 9 µM (≈ 25.4 µg/mL)
- MIC (Escherichia coli K-12): ≥ 160 µM
- MIC [31]: ≥ 160 µM
Structure (SMILES): CC[C@H](C)[C@H](NC(=O)[C@H](CCCCN)NC(=O)[C@H](CCC(=O)O)NC(=O)[C@H](CCCCN)NC(=O)[C@H](CO)NC(=O)[C@H](CCCCN)NC(=O)[C@H](CCCN=C(N)N)NC(=O)[C@H](Cc1ccccc1)NC(=O)[C@H](Cc1ccccc1)NC(=O)[C@H](CC(=O)O)NC(=O)CNC(=O)[C@H](CC(C)C)NC(=O)[C@@H](N)CC(C)C)C(=O)NCC(=O)N[C@@H](CCCCN)C(=O)N[C@@H](CCC(=O)O)C(=O)N[C@@H](Cc1ccccc1)C(=O)N[C@@H](CCCCN)C(=O)N[C@@H](CCCN=C(N)N)C(=O)N[C@H](C(=O)N[C@H](C(=O)N[C@@H](CCC(N)=O)C(=O)N[C@@H](CCCN=C(N)N)C(=O)O)C(C)C)[C@@H](C)CC [LLGDFFRKSKEKIGKEFKRIVQR]
